# Source: publication PMC12697865, “ZFPL1 Promotes Colorectal Cancer Progression by Stabilizing ASS1 to Drive the Urea Cycle and M2 Macrophage‐Mediated Metastatic Colonization” (Advanced Science, 2025)
# Biological target: T1, zinc finger protein-like 1 (ZFPL1) (Homo sapiens, UniProt O95159)
# T1 sequence (O95159 1-310): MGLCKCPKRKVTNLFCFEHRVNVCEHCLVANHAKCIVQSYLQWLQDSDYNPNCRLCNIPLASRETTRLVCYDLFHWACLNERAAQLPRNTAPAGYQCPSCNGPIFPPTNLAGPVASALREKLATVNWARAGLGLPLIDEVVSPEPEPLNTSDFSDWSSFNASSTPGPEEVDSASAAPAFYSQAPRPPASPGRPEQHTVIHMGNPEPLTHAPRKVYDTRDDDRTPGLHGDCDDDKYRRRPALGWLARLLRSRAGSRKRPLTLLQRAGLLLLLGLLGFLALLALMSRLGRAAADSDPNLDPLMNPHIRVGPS
# Test: microscale thermophoresis (MST) with fluorescently labelled ZFPL1
# Type: binding
smiles,measurement,value
O=C(/C=C/c1ccc(O)c2c1[C@H](C(=O)O[C@H](Cc1ccc(O)c(O)c1)C(=O)O)[C@@H](c1ccc(O)c(O)c1)O2)O[C@H](Cc1ccc(O)c(O)c1)C(=O)O [Salvianolic acid B],Kd,8.52 µM
